Results from patent publication US20110306638A1, “BENZISOXAZOLE PIPERIDINYL DERIVATIVES, PHARMACEUTICAL COMPOSITIONS COMPRISING THE DERIVATIVES AND THEIR USE” (NHWA PHARMA. CORPORATION, priority 2008, published 2011).
Marks after values point to notes of the source that are not given here.

Key:
Kunming mice = test: Acetic acid-induced abdominal writhing test in mice; assay type: in vivo; settings: positive control, 200 mg/kg oral, 1 h before acetic acid
Protocol: Kunming mice, SPF KM mice purchased from […] SLAC LABORATORY ANIMAL CO. LTD and kept in normal environment.
The compounds were dissolved in water for injection at a concentration of 4 mg/ml, 2 mg/ml and 1 mg/ml and were given intragastrically to animals.
Three different doses (10, 20, and 40 mg/kg) were administered to the test groups.
Aspirin was used as a positive control and acetic acid writhing test was used.
30 mice (half male and half female) weighing 18-23 g were divided into five groups, including negative control group, positive control group, low dose group, medium dose group and high dose group:
Mice in test group received test drug (10 mg/kg, 20 mg/kg, 40 mg/kg) via intragastric administration. Negative control group received physiological saline (20 ml/kg) via oral administration. Positive control group received aspirin (200 mg/kg) via oral administration. One hour later, each group received 0.7% acetic acid 10 ml/kg intraperitoneally. Five minutes later, the number of writhes was counted within the subsequent 15 min period; inhibition percentage of writhing response in each test group was calculated by the following equation: […]

5-HT2A receptor = biological target: T1, 5-HT2A receptor (Homo sapiens, UniProt P28223); test: In-vitro competitive binding to 5-HT2A receptor, [3H]-Ketanserin, transformed HEK293 cells; settings: read-out: 5-HT2A [3H]-Ketanserin inhibition percentage
T1 construct: expressed in transfected cells; host or cells: HEK293
T1 sequence (P28223 whole entry): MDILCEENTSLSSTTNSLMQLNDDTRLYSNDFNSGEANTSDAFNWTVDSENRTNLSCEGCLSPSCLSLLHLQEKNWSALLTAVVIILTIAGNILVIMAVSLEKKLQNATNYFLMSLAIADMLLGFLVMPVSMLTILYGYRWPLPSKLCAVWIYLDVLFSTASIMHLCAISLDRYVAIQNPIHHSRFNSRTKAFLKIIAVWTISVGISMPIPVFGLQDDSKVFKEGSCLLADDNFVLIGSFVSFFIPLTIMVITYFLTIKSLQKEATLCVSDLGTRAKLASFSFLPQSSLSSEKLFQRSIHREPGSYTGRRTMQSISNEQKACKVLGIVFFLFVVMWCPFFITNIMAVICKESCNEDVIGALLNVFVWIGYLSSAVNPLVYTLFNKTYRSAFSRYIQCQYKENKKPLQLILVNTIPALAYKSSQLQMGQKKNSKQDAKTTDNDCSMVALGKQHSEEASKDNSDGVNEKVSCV
Protocol: All test samples were dissolved in DMSO at a concentration of 0.01 mol/L, and then diluted with deionized water to 100 umol/L.
HEK293 cells were transformed with plasmid carriers containing the gene coding for 5-HT2A receptor protein by using calcium phosphate transformation. Stable cell strains which could stably express 5-HT2A receptor protein were obtained from the transformed cells by cultivating in a culture media containing G418, selecting monoclones of the cell and performing radioactive ligand binding assay.
Beckman LS 6500 Scintillation Counter.
HEK-293 cells were infected with recombined viruses containing various genes described above. […] Cells were centrifuged at 1000 rpm for 5 min Culture media was discarded, and cell bodies were collected and stored at −20° C. in a freezer. The cell bodies were resuspended with Tris-HCl reaction buffer during assay.
After incubation at 37° C. for 15 min, the reaction mixture was immediately transferred into ice bath to terminate the reaction; the reaction mixture was quickly filtered through GF/C glass cellulose filter on a Millipore cell sample collector, and was then washed with eluting solution (50 mM Tris-HCl, PH 7.7, 3 ml×3) and dried in a microwave for 8-9 min. The filter was transferred into a 0.5 ml centrifuge tube, and 500 μl lipid soluble scintillation fluid was added. The centrifuge tube was allowed to stand in darkness for more than 30 min. Radioactivity was determined by counting Inhibition percentage of each compound on isotope ligand binding was calculated according to the following equation:
inhibition percentage(I %)=cpm of overall binding tube−cpm of compound/cpm of overall binding tube−cpm of nonspecific binding tube×100%.
Each compound was tested in two duplicate test tubes and two separate tests were performed.

mice = test: Sedative effects in mice (spontaneous activities); assay type: in vivo; parameters: unit not given here; settings: single dose 20 mg/kg
Protocol: Spontaneous activities of the mice were recorded by alternating current tube, Sedative effects were tested after single dose (20 mg/kg).

Row | Structure (SMILES) | Inhibition percentage of writhing response (Kunming mice) | inhibition at 10 µM (5-HT2A receptor) [%] | Sedative effect (mice)
1 | CC(=O)Oc1ccccc1C(=O)O [Aspirin, reference compound] | 95.05** % |  | 
2 | Fc1ccc2c(C3CCN(CCn4ccc5ccccc54)CC3)noc2c1 [II-1, 3-(1-(2-(1H-indol-1-yl)ethyl)piperidin-4-yl)-6-fluorobenzo[d]isoxazole] |  | 99.5 | 43*
3 | Fc1ccc2c(C3CCN(CCCn4ccc5ccccc54)CC3)noc2c1 [II-2, 3-(1-(3-(1H-indol-1-yl)propyl)piperidin-4-yl)-6-fluorobenzo[d]isoxazole] |  |  | 44*
4 | Fc1ccc2c(C3CCN(CCCCCn4ccc5ccccc54)CC3)noc2c1 [II-4, 3-(1-(5-(1H-indol-1-yl)pentyl)piperidin-4-yl)-6-fluorobenzo[d]isoxazole] |  | 99.9 | 91**
5 | Fc1ccc2c(C3CCN(CCCn4ccc5ccc(F)cc54)CC3)noc2c1 [II-5, 6-fluoro-3-(1-(3-(6-fluoro-1H-indol-1-yl)propyl)piperidin-4-yl)benzo[d]isoxazole] |  |  | 65*
6 | COC(=O)c1ccc2ccn(CCCN3CCC(c4noc5cc(F)ccc45)CC3)c2c1 [II-7, methyl 1-(3-(4-(6-fluorobenzo[d]isoxazol-3-yl)piperidin-1-yl)propyl)-1H-indole-6-carboxylate] |  |  | 96**
7 | Fc1ccc2c(C3CCN(CCCCn4ccc5ccc(Cl)cc54)CC3)noc2c1 [II-10, 3-(1-(4-(6-chloro-1H-indol-1-yl)butyl)piperidin-4-yl)-6-fluorobenzo[d]isoxazole] |  |  | 99**
8 | Fc1ccc2c(C3CCN(CCCn4cnc5ccccc54)CC3)noc2c1 [II-11, 3-(1-(3-(1H-benzo[d]imidazol-1-yl)propyl)piperidin-4-yl)-6-fluorobenzo[d]isoxazole] |  | 99.6 | 0
9 | Fc1ccc2c(C3CCN(CCCCn4cnc5ccccc54)CC3)noc2c1 [II-12, 3-(1-(4-(1H-benzo[d]imidazol-1-yl)butyl)piperidin-4-yl)-6-fluorobenzo[d]isoxazole] |  | 99.5 | 52*
10 | Fc1ccc2c(C3CCN(CCCn4ncc5ccccc54)CC3)noc2c1 [II-13, 3-(1-(3-(1H-indazol-1-yl)propyl)piperidin-4-yl)-6-fluorobenzo[d]isoxazole] |  |  | 66*
11 | Fc1ccc2c(C3CCN(CCCn4cnc5ccc(F)cc54)CC3)noc2c1 [III-1, 6-fluoro-3-(1-(3-(6-fluoro-1H-benzo[d]imidazol-1-yl)propyl)piperidin-4-yl)benzo[d]isoxazole] |  |  | 54*
12 | N#Cc1ccc2ncn(CCCCN3CCC(c4noc5cc(F)ccc45)CC3)c2c1 [III-3, 1-(4-(4-(6-fluorobenzo[d]isoxazol-3-yl)piperidin-1-yl)butyl)-1H-benzo[d]imidazole-6-carbonitrile] |  |  | 52*
13 | N#Cc1ccc2ccn(OCCN3CCC(c4noc5cc(F)ccc45)CC3)c2c1 [IV-1, 1-(2-(4-(6-fluorobenzo[d]isoxazol-3-yl)piperidin-1-yl)ethoxy)-1H-indole-6-carbonitrile] |  |  | 20
14 | N#Cc1ccc2ccn(OCCCN3CCC(c4noc5cc(F)ccc45)CC3)c2c1 [IV-2, 1-(3-(4-(6-fluorobenzo[d]isoxazol-3-yl)piperidin-1-yl)propoxy)-1H-indole-6-carbonitrile] |  |  | 52*
15 | Fc1ccc2c(C3CCN(CCOn4nnc5ccc(Cl)cc54)CC3)noc2c1 [IV-3, 3-(1-(2-(6-chloro-1H-benzo[d][1,2,3]triazol-1-yloxy)ethyl)piperidin-4-yl)-6-fluorobenzo[d]isoxazole] |  | 92.8 | 67*
